# Test results taken from ChEMBL document CHEMBL1130599, “Novel protein kinase C inhibitors: alpha-terthiophene derivatives” (Bioorg Med Chem Lett, 1998).
# Assay: Inhibition of protein kinase C(1:1mixture of PKC alpha & beta) expressed in Sf9 insect cells
# Type: cell-based
row,SMILES,IC50 [µM]
1,O=Cc1ccc(-c2cccs2)s1,700
2,O=Cc1ccc(-c2ccc(-c3ccc(CO)s3)s2)s1,0.7
3,N#Cc1ccc(-c2ccc(-c3cccs3)s2)s1,2
4,c1csc(-c2ccc(-c3cccs3)s2)c1,10
5,OCc1ccc(-c2ccc(-c3cccs3)s2)s1,4
6,O=Cc1ccc(-c2ccc(-c3ccc(C=O)s3)s2)s1,0.3
7,NCc1ccc(-c2ccc(-c3cccs3)s2)s1,7
8,O=Cc1ccc(-c2ccc(-c3cccs3)s2)s1,0.7
9,O=Cc1cccs1 [2-THIOPHENENECARBOXALDEHYDE],> 4000
10,CN1CCN(CCCN2c3ccccc3Sc3ccc(C(F)(F)F)cc32)CC1 [TRIFLUOPERAZINE],500
